In patent publication US12084444B2, “Spiro-lactam NMDA modulators and methods of using same” (Tenacia Biotechnology (Hong Kong) Co., Limited, priority 2016, dated 2024):

Columns and labels:
[1] = tested on: Sprague Dawley rats; assay: Bennett model of mechanical analgesia (sciatic nerve chronic constriction injury); format: in vivo
Protocol: The Bennett model of mechanical analgesia is used to assess the analgesic effects of compounds as measured by paw withdrawal threshold. Bennett G J, Xie Y K, “A peripheral mononeuropathy in rat that produces disorders of pain sensation like those seen in man,” Pain 33:87-107, 1988. […] Vehicle animals receive the surgery and then receive vehicle rather than test compound. Animals were tested 1 hr, 24 h and 1 wk post-test compound or vehicle administration.
Male 2-3 month old Sprague Dawley rats were used. Harlan was the supplier for all studies. Rats were housed in Lucite cages with aspen wood chip bedding, maintained on a 12:12 light:dark cycle (lights on at 5 AM), and given ad libitum access to Purina lab chow (USA) and tap water throughout the study.
Rats were anesthetized using inhaled isoflurane (2.5%). Sciatic nerve chronic constriction nerve injury surgery was performed as previously described (Bennett and Xie, 1988). An incision (˜1.5 cm in length) was made with a scalpel blade dorsally through skin on the right hind limb, parallel and posterior to femur. Using a small pointed hemostat, the biceps femoris and gluteus superficialis muscles were separated. Using curved blunt forceps, the common sciatic nerve was isolated and exposed. For the mechanical analgesia studies, the whole sciatic nerve was ligated. Using hemostats/forceps and chromic gut (5-0), the nerve was loosely ligated with a square knot; 3 ligatures, 1 mm apart were placed on the nerve. […] Testing occurred approximately 2 weeks post-surgery.
During testing, rats were acclimated to the surface of a suspended wire mesh grid (1 cm×1 cm, with the wire being 0.3 cm in diameter) for 15-20 min. Starting from the smallest, each Von Frey filament was pressed perpendicularly to the plantar surface of the affected (ipsilateral) hind paw until slightly bent and then held for 6 second. If an obvious hind paw withdrawal or a flinching behavior immediately after the withdrawal of the filament was not observed, the next larger filament was used in the same manner. In case of a response, a lower filament was used. This was repeated until six responses were collected.
For all studies, animals were baselined prior to study start to test for allodynia (defined as a paw withdrawal threshold under 5). A subset of animals was tested with gabapentin (150 mg/kg, PO) to ensure at least 50% analgesia. Once it was confirmed animals were ready for study initiation, animals were balanced across groups. All study investigators were blind to treatment conditions. Animals were dosed with 0.1, 1, 10, or 30 mg/kg of test compound via oral gavage (PO), control sets of animals were dosed with gabapentin (150 mg/kg, PO) or vehicle (0.5% Na-CMC in 0.9% sterile saline, PO). Testing occurred 1 h post-dosing with animals retested 24 hrs and 1 week post-dosing. The percent analgesia calculations for each animal were made using the following equation: % analgesia=[(log(x)−y)/((log (z)−y)]*100, where x=the paw withdrawal threshold for the drug-treated animal in grams, y=the average of the log(x) values for the vehicle treated group, and z=the paw withdrawal threshold for naïve animals in grams (historical value of 15 used). The results for Compound AA-2, where the percentage of analgesia is measured at 1 hour, 24 hours, and 1 week after compound administration are as follows: for 0.1 mg/kg dose: 22.3% at 1 h, 1.6% at 24 h, and 2.3% at 1 wk; for 1 mg/kg dose: 19.2% at 1 h, 10.7% at 24 h, and 11.0% at 1 wk; for 10 mg/kg dose: 38.1% at 1 h, 24.3% at 24 h, and 41.4% at 1 wk; and for 30 mg/kg dose: 24.4% at 1 h, 8.7% at 24 h, and 34.5% at 1 wk.

[2] = target: T1, NMDAR2A expressing HEK cell membranes (Homo sapiens, UniProt Q12879); assay: NMDAR agonist assay, [3H]MK-801 binding, NMDAR2A; format: biochemical; parameters: key to NMDAR2A B: log EC50: 0=−; ≥1×10^−9 M (e.g., −8)=+; <1×10^−9 M (e.g., −10)=++; settings: 50 μM glutamate
T1 construct: expressed in transfected cells; host or cells: HEK cells (membrane extract)
Method in brief: (§1)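 HEK membranes (300 μg protein) expressing each subtype were preincubated 15 min at 25 °C with 50 μM glutamate and compound (1×10^−15–1×10^−7 M) or 1 mM glycine. [3H]MK-801 (0.3 μCi) binding then ran 15 min under nonequilibrium conditions, followed by filtration. EC50 and % maximal binding against 1 mM glycine came from three-parameter fits of baseline-subtracted DPM (N=2).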

[3] = target: T2, NMDAR2A expressing HEK cell membranes (Homo sapiens, UniProt Q05586+Q12879); assay: NMDAR agonist assay, [3H]MK-801 binding, NMDAR2A; format: biochemical; parameters: key to NMDAR2A B: log EC50: 0=−; ≥1×10^−9 M (e.g., −8)=+; <1×10^−9 M (e.g., −10)=++; settings: 0.25 h, 50 μM glutamate; read-out: NMDAR2A A: % maximal [3H]MK-801 binding relative to 1 mM glycine
T2 construct: expressed in transfected cells; host or cells: HEK cells (membrane extract)
Method in brief: as §1

[4] = target: T3, NMDAR2D expressing HEK cell membranes (Homo sapiens, UniProt O15399); assay: NMDAR agonist assay, [3H]MK-801 binding, NMDAR2D; format: biochemical; settings: 50 μM glutamate
T3 construct: expressed in transfected cells; host or cells: HEK cells (membrane extract)
Method in brief: as §1

T2 sequence (Q12879 23-1464, other chains not shown): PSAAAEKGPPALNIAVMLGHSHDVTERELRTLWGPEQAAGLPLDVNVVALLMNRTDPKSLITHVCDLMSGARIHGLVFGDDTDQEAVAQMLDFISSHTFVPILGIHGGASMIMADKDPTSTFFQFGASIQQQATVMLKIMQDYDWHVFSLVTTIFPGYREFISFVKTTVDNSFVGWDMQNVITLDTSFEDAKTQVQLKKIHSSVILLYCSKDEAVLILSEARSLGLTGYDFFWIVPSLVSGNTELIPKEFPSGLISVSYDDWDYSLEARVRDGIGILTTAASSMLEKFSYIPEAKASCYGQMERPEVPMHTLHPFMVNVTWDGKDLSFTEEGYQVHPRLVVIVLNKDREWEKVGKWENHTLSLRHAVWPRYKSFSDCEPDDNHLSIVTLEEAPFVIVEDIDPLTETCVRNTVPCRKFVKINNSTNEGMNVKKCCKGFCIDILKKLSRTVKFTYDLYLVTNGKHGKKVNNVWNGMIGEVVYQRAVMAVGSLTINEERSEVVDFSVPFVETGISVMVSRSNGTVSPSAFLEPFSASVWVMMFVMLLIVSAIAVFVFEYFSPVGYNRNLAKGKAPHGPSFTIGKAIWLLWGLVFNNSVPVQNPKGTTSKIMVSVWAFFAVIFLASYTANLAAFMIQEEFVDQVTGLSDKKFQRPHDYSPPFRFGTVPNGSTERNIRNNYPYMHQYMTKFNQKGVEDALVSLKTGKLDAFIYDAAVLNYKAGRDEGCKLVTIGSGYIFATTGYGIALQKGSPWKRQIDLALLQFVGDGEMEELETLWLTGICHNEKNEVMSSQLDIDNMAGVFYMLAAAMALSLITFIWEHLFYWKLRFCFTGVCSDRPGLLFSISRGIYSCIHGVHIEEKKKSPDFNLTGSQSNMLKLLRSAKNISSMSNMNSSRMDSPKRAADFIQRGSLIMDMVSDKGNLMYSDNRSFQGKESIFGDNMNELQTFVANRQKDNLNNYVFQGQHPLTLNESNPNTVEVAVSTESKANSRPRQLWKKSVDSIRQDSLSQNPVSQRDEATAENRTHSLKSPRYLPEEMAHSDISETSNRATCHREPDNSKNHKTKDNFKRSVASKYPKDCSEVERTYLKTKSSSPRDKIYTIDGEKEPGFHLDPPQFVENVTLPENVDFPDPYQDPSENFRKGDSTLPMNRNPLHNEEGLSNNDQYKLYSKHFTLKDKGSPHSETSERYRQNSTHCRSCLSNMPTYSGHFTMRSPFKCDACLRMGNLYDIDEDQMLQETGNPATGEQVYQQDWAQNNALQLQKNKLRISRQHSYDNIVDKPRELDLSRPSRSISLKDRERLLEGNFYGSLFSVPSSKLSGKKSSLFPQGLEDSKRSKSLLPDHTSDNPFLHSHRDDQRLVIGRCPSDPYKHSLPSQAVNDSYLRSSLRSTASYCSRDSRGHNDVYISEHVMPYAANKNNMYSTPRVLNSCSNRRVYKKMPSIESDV
T1 sequence (Q12879 23-1464, other chains not shown): as above
T3 sequence (O15399 28-1336, other chains not shown): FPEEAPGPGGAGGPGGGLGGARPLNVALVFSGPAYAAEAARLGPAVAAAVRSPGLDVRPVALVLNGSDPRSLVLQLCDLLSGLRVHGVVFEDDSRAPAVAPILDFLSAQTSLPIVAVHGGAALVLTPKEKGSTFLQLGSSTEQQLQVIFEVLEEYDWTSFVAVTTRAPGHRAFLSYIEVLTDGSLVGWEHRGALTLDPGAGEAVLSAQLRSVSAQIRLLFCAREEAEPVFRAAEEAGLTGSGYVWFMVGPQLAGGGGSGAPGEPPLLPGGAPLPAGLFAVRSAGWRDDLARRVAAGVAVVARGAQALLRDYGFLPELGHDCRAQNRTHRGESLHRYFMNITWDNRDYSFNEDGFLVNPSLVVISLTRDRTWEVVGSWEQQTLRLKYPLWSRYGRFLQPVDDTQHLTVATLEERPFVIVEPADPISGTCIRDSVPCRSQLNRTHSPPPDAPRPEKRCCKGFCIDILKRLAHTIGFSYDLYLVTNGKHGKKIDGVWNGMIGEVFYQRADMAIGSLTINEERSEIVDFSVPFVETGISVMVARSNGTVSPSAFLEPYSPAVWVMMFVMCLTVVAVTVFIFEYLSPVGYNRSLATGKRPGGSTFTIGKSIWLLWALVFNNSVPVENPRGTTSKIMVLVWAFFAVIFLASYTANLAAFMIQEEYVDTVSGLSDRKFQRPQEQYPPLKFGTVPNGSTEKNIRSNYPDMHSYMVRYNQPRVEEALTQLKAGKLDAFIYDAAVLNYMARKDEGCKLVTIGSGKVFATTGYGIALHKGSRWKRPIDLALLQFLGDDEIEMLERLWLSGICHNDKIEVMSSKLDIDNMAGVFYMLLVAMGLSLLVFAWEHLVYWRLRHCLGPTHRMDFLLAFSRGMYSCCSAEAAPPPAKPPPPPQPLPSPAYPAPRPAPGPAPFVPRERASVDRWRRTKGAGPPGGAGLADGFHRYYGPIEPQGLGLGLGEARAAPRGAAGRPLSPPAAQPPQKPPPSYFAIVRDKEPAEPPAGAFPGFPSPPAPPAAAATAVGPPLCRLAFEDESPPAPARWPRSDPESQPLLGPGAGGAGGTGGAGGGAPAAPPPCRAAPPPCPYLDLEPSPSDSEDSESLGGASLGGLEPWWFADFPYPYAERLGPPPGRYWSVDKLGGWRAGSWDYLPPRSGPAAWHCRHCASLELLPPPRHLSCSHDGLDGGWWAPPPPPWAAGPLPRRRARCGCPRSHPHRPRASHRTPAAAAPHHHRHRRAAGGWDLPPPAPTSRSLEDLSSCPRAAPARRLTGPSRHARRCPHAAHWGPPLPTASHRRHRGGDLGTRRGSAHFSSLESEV

Compound: COc1ccc(CN2C[C@@]3(CCNC(=O)C3)C2=O)cc1 [Compound AA-2, 2-(4-methoxybenzyl)-2,7-diazaspiro[3.5]nonane-1,6-dione]
- % analgesia ([1]; 0.1 mg/kg PO, 1 wk): 2.3%
- % analgesia ([1]; 0.1 mg/kg PO, 1 h): 22.3%
- % analgesia ([1]; 0.1 mg/kg PO, 24 h): 1.6%
- % analgesia ([1]; 1 mg/kg PO, 1 wk): 11.0%
- % analgesia ([1]; 1 mg/kg PO, 1 h): 19.2%
- % analgesia ([1]; 1 mg/kg PO, 24 h): 10.7%
- % analgesia ([1]; 10 mg/kg PO, 1 wk): 41.4%
- % analgesia ([1]; 10 mg/kg PO, 1 h): 38.1%
- % analgesia ([1]; 10 mg/kg PO, 24 h): 24.3%
- % analgesia ([1]; 30 mg/kg PO, 1 wk): 34.5%
- % analgesia ([1]; 30 mg/kg PO, 1 h): 24.4%
- % analgesia ([1]; 30 mg/kg PO, 24 h): 8.7%
- NMDAR2A B: log EC50 [2]: −
- Emax [3]: 0%
- NMDAR2D A: % maximal [3H]MK-801 binding relative to 1 mM glycine [4]: + (<100%=+)
